In patent US5911993A, “Homeopathic antidiabetic treatment” (priority 1997, dated 1999):

What was measured:
diabetes models = test: blood sugar in mice diabetes models made by injecting Tetraoxymidine; format: in vivo, Kumming species mice; details: for Blood sugar value, After Use / Reducer rate (-.increment.X%) / Blood sugar value, Before Use: 11 female mice, 0.2 ml/mouse/day; for Blood sugar value, After Use: 6 days after filling the gastric, 0.5 mg/ml powder; for Reducer rate (-.increment.X%) / sequence of reducing blood sugar: 6 days; for Reducer rate (-.increment.X%): 0.5 mg/ml; for Blood sugar value, Before Use: baseline before 0.5 mg/ml powder
Procedure: Then, an animal experiment was conducted using a powder and concentrated powder from the methods of steps of FIGS. 2 through 5. The experimental method is as follows: Separate 88 Kumming species mice randomly to reference group, DSP group, DAS group, DAS 1, DAS 2, and DAS 3 groups, Damicron group, and Youjiangtang group, 11 female mice in each group. Use the mice to make diabetes models by injecting Tetraoxymidine, and compare experiment group with known DSP, Damicron, Youjiangtang (as the standard sample). The dose for every group: 0.5 mg/ml powder, every day 0.2 ml for every mouse, and every day 0.2 ml sodium chloride solution for the reference group only. Take blood to measure blood sugar value 6 days after filling the gastric.

[1] = test system: non-insulin dependent type diabetes; test: clinical experiments on humans, non-insulin dependent type diabetes; details: human, in vivo
Procedure: (§1) Clinical experiments were also conducted on humans from various provinces of China. Five examples of these clinical experiments are as follows (in each experiment each tablet had 20 mg of non-concentrated powder of Echevaria glauca, Sinocrassula berger, Crassulaceae according to the invention): […]

[2] = test system: polychromatic erythrocytes; test: Mouse marrow micronucleus experiment; format: in vivo, Kumming species mouse
Procedure: 2 Mouse marrow micronucleus experiment:
Adopting first class qualified Kumming species mouse (provided by animal house of CMA) whose weight are 24~30 g. Making 3 DAS dose groups as 10, 600, 1200 mg/kg plus a positive (cyclophosphamide 30 mg/kg, inject to stomach 2 times) and a negative reference group, 10 mice for each group, half male and half female. Filling the gastric of each mouse two days continuously, and executing the mouse 6 hours after last filling, taking sternum marrow to make thin section as routine, coloring to red. Counting 1000 polychromatic erythrocytes for each mouse, observing polychromatic erythrocytes which contains micronucleus and calculating the rate of micronucleus cell.

sperm = test: Mouse sperm terata experiment; format: in vivo, Kumming species mouse
Procedure: 3 Mouse sperm terata experiment:
Adopting first class qualified Kumming species mouse (provided by animal house of CMA) whose weight are 27~36 g. Making 3 DAS dose groups as 10, 600, 1200 mg/kg plus a positive (cyclophosphamide 30 mg/kg, inject to stomach 5 days) and a negative reference group. Filling the gastric of each mouse for each of 5 days continuously, and executing the mouse at 35th day after first filling, taking epididymis of both sides, coloring, observing 1000 sperms for each mouse and calculating the ratio of sperm mutation.

[3] = test system: insulin dependent type diabetes; test: clinical experiment on human, insulin dependent type diabetes; format: in vivo, humans; details: Example 2, 20 units insulin injected
Procedure: as §1

Molecule | Blood sugar value, After Use (diabetes models) | Reducer rate (-.increment.X%) (diabetes models) | Blood sugar value, Before Use (diabetes models) | sequence of reducing blood sugar (diabetes models) | also measured
Cc1ccc(S(=O)(=O)NC(=O)NN2CC3CCCC3C2)cc1 (stereo not drawn) [DMC] | 110.50 mg % | 42.55% | 292.35 mg % | DAS2 >DAS3 >DAS1>DSP>YJT>DMC | 
COc1ccc(Cl)cc1C(=O)NCCc1ccc(S(=O)(=O)NC(=O)NC2CCCCC2)cc1 [YJT] | 162.28 mg % | 45.28% | 296.38 mg % | DAS2 >DAS3 >DAS1>DSP>YJT>DMC | side effect (a sign of low blood sugar) [1]: became dizzy
O=P1(N(CCCl)CCCl)NCCCO1 (stereo not drawn) [cyclophosphamide] |  |  |  |  | Ratio of cell micronucleus ([2]; Positive R.G., 30 mg/kg, 2 times): 45.3%; P vs negative group, micronucleus ([2]; positive reference group): < 0.01; Variant rate (sperm; Positive R.G., 30 mg/kg, 5 days): 61.9%; Variant sperm number (sperm; Positive R.G., 30 mg/kg, 5 days, 10000 sperm observed): 619; P vs negative group, sperm terata (sperm; positive reference group): < 0.01
insulin |  |  |  |  | high or low blood sugar before DAS [3]: became high or low blood sugar occasionally
